One assay deals with T1, hEP2/Gqs5 (Homo sapiens, UniProt P43116).
T1 construct: expressed in transfected cells
As to the kind of experiment: FLIPR calcium signal, EP2. Conditions: HEK-293(EBNA) hEP2/Gqs5, read-out: EP2 Ca2+ EC50. It counts as cell-based. How it is done:
(§1) HEK-293(EBNA) cells, stably expressing one type or subtype of recombinant human prostaglandin receptors (prostaglandin receptors expressed: hDP/Gqs5; hEP1, hEP2/Gqs5; hEP3A/Gqi5; hEP4/Gqs5; hFP; hIP; hTP), were cultured in 100 mm culture dishes in high-glucose DMEM medium containing 10% fetal bovine serum, 2 mM I-glutamine, 250 μg/ml geneticin (G418) and 200 μg/ml hygromycin B as selection markers, and 100 units/ml penicillin G, 100 μg/ml streptomycin and 0.25 μg/ml amphotericin B.
(§2) Cells were seeded at a density of 5×10^4 cells per well in Biocoat® Poly-D-lysine-coated black-wall, clear-bottom 96-well plates (Becton-Dickinson) and allowed to attach overnight in an incubator at 37° C. Cells were then washed two times with HBSS-HEPES buffer (Hanks Balanced Salt Solution without bicarbonate and phenol red, 20 mM HEPES, pH 7.4) using a Denley Cellwash plate washer (Labsystems). After 45 minutes of dye-loading in the dark, using the calcium-sensitive dye Fluo-4 AM at a final concentration of 2 μM, plates were washed four times with HBSS-HEPES buffer to remove excess dye leaving 100 μl, in each well. Plates were re-equilibrated to 37° C. for a few minutes.
(§3) Cells were excited with an Argon laser at 488 nm, and emission was measured through a 510-570 nm bandwidth emission filter (FLIPR™, Molecular Devices, Sunnyvale, Calif.). Drug solution was added in a 50 μL volume to each well to give the desired final concentration. The peak increase in fluorescence intensity was recorded for each well. On each plate, four wells each served as negative (HBSS-HEPES buffer) and positive controls (standard agonists: BW245C (hDP); PGE2(hEP1, hEP2/Gqs5; hEP3A/Gqi5; hEP4/Gqs5); PGF2α (hFP); carbacyclin (hIP); U-46619 (hTP), depending on receptor). The peak fluorescence change in each drug-containing well was then expressed relative to the controls.
(§4) Compounds were tested in a high-throughput (HTS) or concentration-response (CoRe) format. In the HTS format, forty-four compounds per plate were examined in duplicates at a concentration of 10^−5 M. To generate concentration-response curves, four compounds per plate were tested in duplicates in a concentration range between 10^−5 and 10^−11. The duplicate values were averaged. In either, HTS or CoRe format each compound was tested on at least 3 separate plates using cells from different passages to give an n≧3.

The next assay has as its target T2, EP4 receptors (Homo sapiens, UniProt P35408).
T2 construct: expressed in transfected cells; membrane fraction
Nature of the assay: Radioligand binding, [3H]PGE2, EP4. Conditions: [3H]PGE2 competition, HEK-293 cells expressing EP4; read-out: EP4 Ki EC50. Here is the method:
(§5) HEK-293 cells stably expressing the human or feline FP receptor, or EP1, EP2, or EP4 receptors were washed with TME buffer, scraped from the bottom of the flasks, and homogenized for 30 sec using a Brinkman PT 10/35 polytron. TME buffer was added to achieve a final 40 ml volume in the centrifuge tubes (the composition of TME is 100 mM TRIS base, 20 mM MgCl2, […]; ION HCl is added to achieve a pH of 7.4).
(§6) The cell homogenate was centrifuged at 19000 rpm for 20 min at 4° C. using a Beckman Ti-60 rotor. The resultant pellet was resuspended in TME buffer to give a final 1 mg/ml protein concentration, as determined by Biorad assay. Radioligand binding competition assays vs. [^3H-]17-phenyl PGF2α (5 nM) were performed in a 100 μl volume for 60 min. Binding reactions were started by adding plasma membrane fraction. The reaction was terminated by the addition of 4 ml ice-cold TRIS-HCl buffer and rapid filtration through glass fiber GF/B filters using a Brandel cell harvester. The filters were washed 3 times with ice-cold buffer and oven dried for one hour.
(§7) [^3H-] PGE2 (specific activity 180 Ci mmol) was used as the radio ligand for EP receptors. [^3H] 17-phenyl PGF2α was employed for FP receptor binding studies. Binding studies employing EP1, EP2, EP4 and FP receptors were performed in duplicate in at least three separate experiments. A 200 μl assay volume was used. Incubations were for 60 min at 25° C. and were terminated by the addition of 4 ml of ice-cold 50 mM TRIS-HCl, followed by rapid filtration through Whatman GF/B filters and three additional 4 ml washes in a cell harvester (Brandel). Competition studies were performed using a final concentration of 5 nM [^3H]-PGE2, or 5 nM [^3H] 17-phenyl PGF2α and non-specific binding determined with 10^−5 M of unlabeled PGE2, or 17-phenyl PGF2α according to receptor subtype studied.

For the next assay, the target named is T3, hDP/Gqs5 (Homo sapiens, UniProt Q13258).
T3 construct: expressed in transfected cells
T3 sequence (Q13258 1-359): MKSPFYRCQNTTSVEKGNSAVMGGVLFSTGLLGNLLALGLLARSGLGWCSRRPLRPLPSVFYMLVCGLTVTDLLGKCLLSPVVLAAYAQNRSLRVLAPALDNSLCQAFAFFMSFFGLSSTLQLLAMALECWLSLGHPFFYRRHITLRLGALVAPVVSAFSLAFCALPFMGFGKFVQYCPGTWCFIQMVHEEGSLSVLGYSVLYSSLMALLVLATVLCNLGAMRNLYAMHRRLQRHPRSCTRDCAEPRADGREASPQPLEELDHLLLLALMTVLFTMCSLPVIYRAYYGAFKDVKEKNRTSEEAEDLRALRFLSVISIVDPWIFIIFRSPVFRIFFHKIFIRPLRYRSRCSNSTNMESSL
As to the kind of experiment: FLIPR calcium signal, DP. The conditions noted are these: NA listed after 'NA:', read-out: OTHER RECEPTORS Ca2+ EC50: DP. The format is cell-based. Here is the method:
as §1, §2, §3
(§8) Compounds were tested in a high-throughput (HTS) or concentration-response (CoRe) format. […]

The target in a further assay is T4, hEP3A/Gqi5 (Homo sapiens, UniProt P43115).
T4 construct: expressed in transfected cells
T4 sequence (P43115 1-390): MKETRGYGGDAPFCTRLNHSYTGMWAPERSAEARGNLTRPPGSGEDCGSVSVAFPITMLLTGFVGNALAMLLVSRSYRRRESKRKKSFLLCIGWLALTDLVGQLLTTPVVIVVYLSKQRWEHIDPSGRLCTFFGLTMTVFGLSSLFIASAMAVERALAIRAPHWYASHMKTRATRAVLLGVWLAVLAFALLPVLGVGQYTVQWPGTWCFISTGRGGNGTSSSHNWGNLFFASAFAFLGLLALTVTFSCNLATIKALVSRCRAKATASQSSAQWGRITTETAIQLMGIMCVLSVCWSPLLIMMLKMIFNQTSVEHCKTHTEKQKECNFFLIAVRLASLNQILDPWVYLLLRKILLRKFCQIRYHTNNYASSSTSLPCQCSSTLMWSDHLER
Nature of the assay: FLIPR calcium signal, EP3. Conditions: read-out: OTHER RECEPTORS Ca2+ EC50: EP3. It counts as cell-based. How it is done: as §1, §2, §3, §4

For assay [1], the target named is T5, EP2 (Homo sapiens, UniProt P43116). As to the kind of experiment: Competition radioligand binding, [3H]PGE2, EP2. Also noted: expressed in transfected cells; membranes or whole cells. Conditions: [3H]PGE2 competition, HEK 293 cells expressing human EP2. How it is done:
Competition binding experiments were performed in a medium containing Hank's balanced salt solution, Hepes 20 mM, pH 7.3, membranes (˜[…] protein) or 2×10^5 cells from HEK 293 cells stably expressing human EP2 receptors, [^3H]PGE2 (10 nM) and various concentrations of test compounds in a total volume of 300 μl. Reaction mixtures were incubated at 23° C. for 60 min, and were filtered over Whatman GF IB filters under vacuum. Filters were washed three times with 5 ml ice-cold buffer containing 50 mM Tris/HCl (PH 7.3). Non-specific binding was estimated in the presence of excess unlabeled PGE2 (10 μM). Binding data fitted to the binding model for a single class of binding sites, using nonlinear regression analysis. IC50 values thus obtained were converted to Ki using the equation of Ki=(IC50/(1+[L]/KD) where [L] represents PGE2 concentration (10 nM) and KD the dissociation constant for [^3H]PGE2 at human EP2 receptors (40 nM).
as §5, §6, §7

In the next assay the target is T6, hEP4/Gqs5 (Homo sapiens, UniProt P35408).
T6 construct: expressed in transfected cells
As to the kind of experiment: FLIPR calcium signal, EP4. It counts as cell-based. The conditions noted are these: HEK-293(EBNA) hEP4/Gqs5, read-out: EP4 Ca2+ EC50. Here is the method:
as §1, §2, §3, §8

Assay [2] has as its target T5, EP2. As to the kind of experiment: cAMP assay, HEK-EBNA cells expressing EP2. The format is cell-based. On the set-up: expressed in transfected cells; host or cells: HEK-EBNA cells. How it is done: A 384-well drug plate was prepared to contain 6 test compounds, PGE2 and cAMP in 16 serial dilutions in triplicate, using a Biomek station. HEK-EBNA cells expressing a target PG receptor subtype (EP2 or EP4) were suspended in a stimulation buffer (HBSS, 0.1% BSA, 0.5 mM IBMX and 5 mM HEPES, pH 7.4) in a density of 10^4 cells/5 μL. The reaction was initiated by mixing 5 μL drug dilutions with 5 μL of HEK-EBNA cells in a well, carried out for 30 min at room temperature, and followed by the addition of 5 μL anti-cAMP acceptor beads in the control buffer with Tween-20 (25 mM NaCl, 0.03% Tween-20, 5 mM HEPES, pH 7.4). After 30 min in the dark at room temperature, the mixtures were incubated with 15 μL biotinylated-cAMP/strepavidin donor beads in Lysis/Detection buffer (0.1% BSA, 0.3% Tween-20 and 5 mM HEPES, pH 7.4) for 45 min at the room temperature. Fluorescence changes were read using a Fusion-alpha HT microplate reader.
Background: Cyclic AMP is a second messenger, typically raised through Gs and lowered through Gi signalling.

The results in this text go back to patent US9000032B2, “Substituted cyclopentenes as therapeutic agents” (Allergan, Inc., priority 2013, dated 2015).

T2 sequence (P35408 whole entry): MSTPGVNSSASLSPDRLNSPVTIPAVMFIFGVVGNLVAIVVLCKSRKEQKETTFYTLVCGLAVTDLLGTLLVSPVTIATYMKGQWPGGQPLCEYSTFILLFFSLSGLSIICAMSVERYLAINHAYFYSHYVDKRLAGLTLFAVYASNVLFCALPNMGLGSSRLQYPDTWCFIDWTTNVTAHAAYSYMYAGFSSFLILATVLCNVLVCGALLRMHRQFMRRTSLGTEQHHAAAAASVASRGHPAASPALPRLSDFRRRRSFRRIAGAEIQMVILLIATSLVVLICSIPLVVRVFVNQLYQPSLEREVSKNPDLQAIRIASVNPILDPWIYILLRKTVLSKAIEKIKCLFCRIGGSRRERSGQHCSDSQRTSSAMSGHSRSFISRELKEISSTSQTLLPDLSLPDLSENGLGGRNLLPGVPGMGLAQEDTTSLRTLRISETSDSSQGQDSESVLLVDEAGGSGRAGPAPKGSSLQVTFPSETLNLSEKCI
T6 sequence (P35408 whole entry): as above
T5 sequence (P43116 whole entry): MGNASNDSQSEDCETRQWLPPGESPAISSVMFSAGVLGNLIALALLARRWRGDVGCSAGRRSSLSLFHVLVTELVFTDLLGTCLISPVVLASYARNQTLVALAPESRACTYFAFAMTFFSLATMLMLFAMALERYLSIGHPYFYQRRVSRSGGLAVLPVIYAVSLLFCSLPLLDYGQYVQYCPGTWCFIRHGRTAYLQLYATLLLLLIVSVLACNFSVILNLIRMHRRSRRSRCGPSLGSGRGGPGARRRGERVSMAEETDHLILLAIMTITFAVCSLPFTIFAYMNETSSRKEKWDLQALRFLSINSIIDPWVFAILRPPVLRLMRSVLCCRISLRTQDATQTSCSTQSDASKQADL
T1 sequence (P43116 whole entry): as above

For `C#CC1=C(c2ccc(C(O)CCCCC)cc2)[C@@H](CCCc2ccc(C(=O)O)s2)CC1` (single isomer, unassigned) [compound 2], the EC50 (usually the concentration giving half of the maximal effect) is 22 nM on hEP2/Gqs5, greater than 10 µM at hDP/Gqs5 and 1.54 µM on hEP3A/Gqi5. For the same molecule, the Ki – broadly, a dissociation constant, usually derived from enzyme kinetics or from competition with a known ligand – at EP4 receptors was 712 nM; at EP2 [1], 7 nM.
As to `CCCCCC(O)c1ccc(C2=C(C#Cc3ccccc3)CC[C@@H]2CCCc2ccc(C(=O)O)s2)cc1` (stereo partly shown) [compound 4], the EC50 on hEP2/Gqs5 is 513 nM; at hEP4/Gqs5, greater than 10 µM; at hEP3A/Gqi5, 7.08 µM; at EP2 [2], 140 nM. Besides, the Ki turned out to be 8190 nM at EP4 receptors and 2530 nM at EP2 [1].
As for `C#CC1=C(c2ccc(C(O)CCCCC)cc2)[C@@H](CCCc2ccc(C(=O)O)s2)CC1` (single isomer, unassigned) [compound 1], the EC50 at hEP2/Gqs5 was 48 nM; on hEP4/Gqs5 it was greater than 10 µM; on hDP/Gqs5 it was 7.73 µM; at hEP3A/Gqi5, 0.171 µM; on EP2 [2] it was 0.2 nM. In addition, the Ki is 2820 nM at EP4 receptors and 2 nM on EP2 [1].
Turning to `CCCCCC(O)c1ccc(C2=C(C#CCO)CC[C@@H]2CCCc2ccc(C(=O)O)s2)cc1` (stereo partly shown) [compound 3], the EC50 on hEP2/Gqs5 is 0.5 nM; at hEP4/Gqs5, greater than 10 µM; at hDP/Gqs5 it was 0.22 µM; on hEP3A/Gqi5, 7.4 µM; at EP2 [2], 1.5 nM. The results for the Ki on EP4 receptors and at EP2 [1] were 783 nM and 17 nM, respectively.
